Values after ≈ are worked out from the molar mass of the structure shown. Where two headings read alike, the source gives them in different places. Where no end group is shown, it is not given here.

Experimental findings from article PMC6503114, “Application of Antimicrobial Peptides of the Innate Immune System in Combination With Conventional Antibiotics—A Novel Way to Combat Antibiotic Resistance?” (Frontiers in Cellular and Infection Microbiology, 2019) are described below.

Series [1] deals with MRSA ATCC 33591. Nature of the series: microbe, parasite or virus in culture. Conditions: median of 3–6 experiments, square brackets = twice the maximal tested concentration. Format: cell-based, Staphylococcus aureus.
Method: (§7) Prior to the “checkerboard” synergy test the minimal inhibitory concentrations (MIC) of individual substances were determined using broth microdilution assay. Testing was performed in 60-well polystyrene Terasaki microplates with V-shaped bottom generally according to the guidelines of the European Committee for Antimicrobial Susceptibility Testing with subtle modifications designed for AMP testing (Tossi et al., [1997]; Wiegand et al., [2008]). Cultivation of bacteria was carried out in 2.1% Müller-Hinton broth at 37°C with shaking. Two-fold serial dilutions of peptides, antibiotics and other antimicrobials were made with 10 mM sodium phosphate buffer, pH 7.4, containing 0.1% of BSA. The plates were preliminary incubated with 0.1% BSA for 1 h at 37°C to reduce a non-specific binding of peptides to the plates. After that BSA was removed, and serial dilutions were added into the plate wells in triplicates followed by the same volume of the suspension of bacterial cells in logarithmic phase of growth in concentration of 1 × 10^6 CFU/ml. After the 18 h overnight incubation at 37°C, the MIC value for each compound was determined as its lowest concentration completely inhibiting the visible growth of bacteria. The final results were calculated as median values based on 3–6 independent experiments.
In series [2] the test system is Murine peritoneal macrophages. The series can be described thus: MTT-test. As for the experimental part:
(§1) Before the cells extraction, mice were sacrificed by cervical dislocation in accordance with the supplement to the Directive 86/609/EEC and its update Directive 2010/63/EU addressing the recommendations for euthanasia of experimental animals (Close et al., [1996]). To obtain peritoneal macrophages, healthy mice were used. The abdominal cavity of each animal was washed with 3 ml of sterile PBS using a Pasteur pipette. The culture of EAC cells was kindly provided by Dr. E.P. Kiseleva (Immunology Department of the Institute of Experimental Medicine, Saint Petersburg, Russia). On the tenth day after the intraperitoneal tumor inoculation, 0.5–1.5 ml of ascitic fluid containing EAC cells was obtained from the abdominal cavity of the animals. Murine cells (normal or tumor) were washed twice with 10 ml of sterile PBS and resuspended in RPMI-1640 medium as described above for human neutrophils and PBMC.
(§2) We calculated Fractional Effective Concentration Index (FECI), which could be seen as a particular case of the interaction index (I) proposed by Berenbaum ([1977]) or of the similar combination index (CI) proposed by Chou and Talalay ([1983]), according to the equation below: […]
(§3) Here, [MEC A] and [MEC B] are the minimum effective concentrations (MEC) of substances A and B, when they are used alone. […] [A] and [B] are respective concentrations of substances A and B in their combination, where the same statistically significant difference is detected. A non-parametric Mann-Whitney U-test (p < 0.05 or p < 0.01) was used for the mentioned statistical comparison.
(§4) We have chosen the same intervals as that of FICI to determine synergy, additivity, independent action, and antagonism based on the minimal FECI values. However, in case of cytotoxic or hemolytic effect we were interested mainly in testing the possibility of additive or synergistic interaction itself, and not in assessing the exact magnitude of such interaction. Thus, in contrast to the “checkerboard titration” method used for combined antimicrobial activity investigation, studying the combined cytotoxic effect, we considered only two combinations of concentrations for the substances A and B in the mixture: • (½ MEC A + ½ MEC B), which, if found effective, provides the FECI value of 1 (the threshold value for additivity); • (¼ MEC A + ¼ MEC B), which, if found effective, provides the FECI value of 0.5 (the threshold value for synergetic interaction).
(§5) When action on tumor cells was tested in combination with antitumor antibiotic the lower concentrations up to ( 1/16 MEC A + 1/16 MEC B) as in checkerboard titration were additionally examined to assess the magnitude of synergistic effect more precisely. The final conclusion was made based on the three independent experiments.
(§6) Standard MTT-test (Mosmann, [1983]) was used for the examination of the cytotoxic activity of antimicrobial compounds and their combinations toward varied eukaryotic cells. Briefly, cell suspensions in RPMI-1640 prepared as described in Eukaryotic Cells were dispensed into the 96-well microplates (2 × 10^5 cells/well). Then, serial dilutions of AMPs, or other antibiotic compounds, or their mixtures in RPMI-1640 were added. In positive controls (100% cell survival) the according volume of RPMI-1640 without test substances was added instead. The final volume in each well was 100 μl. Negative controls (0% cell survival) were made with 100 μl of the sterile RPMI-1640. The plates were incubated at 37°C under 5% CO2 for 24 h. Four hours before the end of incubation, 10 μl of metabolic marker MTT−3-(4,5-dimethylthiazol-2-yl)-2,5-diphenyltetrazolium bromide (5 mg/ml, diluted in PBS) was added to each well. Incubation was stopped by adding 90 μl of isopropanol containing 0.04 M HCl. Content of the wells was thoroughly mixed, so that the formazan crystals, formed in case of the reduction of MTT in presence of actively metabolizing cells, were fully dissolved.
(Tetrazolium assays rely on reduction of a dye to a coloured formazan, in cell work by metabolically active cells.)

For series [3], the system named is Human neutrophils. As for the experimental part:
The pellet formed under the Ficoll-400 layer after separation contained both neutrophils and erythrocytes. It was also transferred into a separate tube, where the red blood cells were lysed with 0.83% ammonium chloride solution, which was added in a ratio of 1:4. After the thorough mixing, the suspension was incubated for 10 min at room temperature, and then centrifuged for 10 min at 300 g and 4°C. The resulting precipitate containing neutrophils was washed twice with the sterile PBS.
as §2, §3, §4, §5
as §6, with “dissolved. The optical density of the samples was evaluated at 540 nm, subtracting the background absorbance at 690 nm, by SpectraMax 250 Spectrophotometer (Molecular Devices, USA). The experiments were repeated at least three times. In each experiment test samples were made in triplicates and control samples were made in hexaplicates.” for “dissolved.”

In series [4] the test system is M. luteus CIP A270. The series can be described thus: microbe, parasite or virus in culture. Format: cell-based, Micrococcus luteus.
Method: as §7
In series [5] the test system is Human PBMC. Nature of the series: MTT-test. How it is done: To obtain neutrophils and mononuclear cells, whole heparinized blood was diluted with sterile PBS in a 1:1 ratio and carefully inserted into the sterile polystyrene 50 ml tube upon the 5 ml of the sterile Ficoll-400 (Pharmacia, Sweden) with a density of 1.077. The tube was centrifuged at 600 g and 4°C for 40 min. After separation, the mononuclear “ring” located between the blood plasma and Ficoll was collected with a Pasteur pipette, transferred to another tube, and washed twice with 10 ml of sterile PBS by centrifugation for 10 min at 300 g and 4°C.
as §2, §3, §4, §5
as §6, with “dissolved. The optical density of the samples was evaluated at 540 nm, subtracting the background absorbance at 690 nm, by SpectraMax 250 Spectrophotometer (Molecular Devices, USA). The experiments were repeated at least three times. In each experiment test samples were made in triplicates and control samples were made in hexaplicates.” for “dissolved.”

Series [6] deals with Murine EAC. The series can be described thus: MTT-test. Format: cell-based, mice. Conditions: Murine EAC tumor cells, 24 h. As for the experimental part: as §1, §2, §3, §4, §5, §6
Series [7] deals with A. baumannii (clin. isol.). The series can be described thus: microbe, parasite or virus in culture. Format: cell-based, Acinetobacter baumannii.
Method: as §7
Setting [8] is: Staphylococcus aureus, read-out: MIC.
Setting [9] is: Micrococcus luteus, CIPA270, median of 3–6 experiments.
The mark [10] stands for this setting: Acinetobacter baumannii, A. baumannii (clin. isol.), susceptible, median of 3–6 experiments, read-out: MIC.
Where [11] appears, read: Murine peritoneal macrophages, normal cells, MTT, 24 h.
Where [12] appears, read: Human neutrophils, normal cells, MTT, 24 h.
[13] abbreviates: Human PBMC, normal cells, MTT, 24 h, square brackets = twice the maximal tested concentration.
Where [14] appears, read: A. baumannii (clin. isol.), susceptible, median of 3–6 experiments, read-out: MIC.

Turning to `CNC(C)C1CCC(N)C(OC2C(N)CC(N)C(OC3OCC(C)(O)C(NC)C3O)C2O)O1` (centres unmarked) [Gentamicin], the MIC in series [1] (setting [8]) was determined as 0.16 µM (≈ 0.0764 µg/mL); in series [4] (setting [9]), 0.16 µM (≈ 0.0764 µg/mL); in series [7] (setting [10]), 0.06 µM (≈ 0.0287 µg/mL). Moreover, the “MEC of cytotoxic action” value in series [2] (mouse, 24 h) was >50 [100] μM; in series [3] (human, 24 h), 50 µM; in series [5] (human, 24 h), >50 [100] μM; in series [6] it was >50 [100] μM.

For the compound `CC[C@H](C)[C@H](NC(=O)[C@H](CCCCN)NC(=O)[C@H](CCC(=O)O)NC(=O)[C@H](CCCCN)NC(=O)[C@H](CO)NC(=O)[C@H](CCCCN)NC(=O)[C@H](CCCNC(=N)N)NC(=O)[C@H](Cc1ccccc1)NC(=O)[C@H](Cc1ccccc1)NC(=O)[C@H](CC(=O)O)NC(=O)CNC(=O)[C@H](CC(C)C)NC(=O)[C@@H](N)CC(C)C)C(=O)NCC(=O)N[C@@H](CCCCN)C(=O)N[C@@H](CCC(=O)O)C(=O)N[C@@H](Cc1ccccc1)C(=O)N[C@@H](CCCCN)C(=O)N[C@@H](CCCNC(=N)N)C(=O)N[C@H](C(=O)N[C@H](C(=O)N[C@@H](CCC(N)=O)C(=O)N[C@@H](CCCNC(=N)N)C(=O)N[C@H](C(=O)N[C@@H](CCCCN)C(=O)N[C@@H](CC(=O)O)C(=O)N[C@@H](Cc1ccccc1)C(=O)N[C@@H](CC(C)C)C(=O)N[C@@H](CCCNC(=N)N)C(=O)N[C@@H](CC(N)=O)C(=O)N[C@@H](CC(C)C)C(=O)N[C@H](C(=O)N1CCC[C@H]1C(=O)N[C@@H](CCCNC(=N)N)C(=O)N[C@H](C(=O)N[C@@H](CCC(=O)O)C(=O)N[C@@H](CO)C(=O)O)[C@@H](C)O)C(C)C)[C@@H](C)CC)C(C)C)[C@@H](C)CC` [LL-37], the “MEC of cytotoxic action” value in series [2] (setting [11]) is >20 [40] μM; in series [3] (setting [12]), 10 µM; in series [5] (setting [13]), 12 µM; in series [6], 10 µM.

Take “RFRLPFRRPPIRIHPPPFYPPFRRFL-NH2 (C-terminus assumed) [ChBac3.4]”: the “MEC of cytotoxic action” value is >20 [40] μM in series [2], >20 [40] μM in series [3], 20 µM in series [5] and 5.0 µM in series [6].

Consider `Cc1onc(-c2ccccc2)c1C(=O)N[C@@H]1C(=O)N2[C@@H]1SC(C)(C)[C@@H]2C(=O)O` [Oxacillin], for which the MIC is 7.5 µM (≈ 3.01 µg/mL) in series [1] (setting [8]), 3.1 µM (≈ 1.24 µg/mL) in series [4] (setting [9]) and 25 µM (≈ 10 µg/mL) in series [7] (setting [10]). The “MEC of cytotoxic action” value is >50 [100] μM in series [2] (mouse, 24 h); >50 [100] μM in series [3] (human, 24 h); >50 [100] μM in series [5] (human, 24 h); >50 [100] μM in series [6].

For the compound Polymyxin B, the MIC came to 12.5 µM in series [1] (read-out: MIC), 0.6 µM in series [4] (median of 3–6 experiments) and 1.25 µM in series [7] (setting [14]). The “MEC of cytotoxic action” value in series [2] (setting [11]) is 50 µM; in series [3] (setting [12]), >50 [100] μM; in series [5] (setting [13]) it was 50 µM; in series [6] it was 50 µM.

As to `CO[C@H]1/C=C/O[C@@]2(C)Oc3c(C)c(O)c4c(O)c(c(/C=N/N5CCN(C)CC5)c(O)c4c3C2=O)NC(=O)/C(C)=C\C=C\[C@H](C)[C@H](O)[C@@H](C)[C@@H](O)[C@@H](C)[C@H](OC(C)=O)[C@@H]1C` [Rifampicin], the MIC was 0.003 µM (≈ 0.00247 µg/mL) in series [1] (setting [8]), 0.003 µM (≈ 0.00247 µg/mL) in series [4] (setting [9]) and 0.125 µM (≈ 0.103 µg/mL) in series [7] (Acinetobacter baumannii). Further, the “MEC of cytotoxic action” value was >20 [40] μM in series [2] (mouse, 24 h); 20 µM in series [3] (human, 24 h); >20 [40] μM in series [5] (human, 24 h); >20 [40] μM in series [6].

With “Lysozyme: egg white lysozyme, antimicrobial protein, from BioChemica”, the MIC was >250 [500] μM in series [1], 0.08 µM in series [4] (median of 3–6 experiments) and 1.2 µM in series [7] (setting [14]). For the same compound, the “MEC of cytotoxic action” value in series [2] is >50 [100] μM; in series [3] it was >50 [100] μM; in series [5] it was >50 [100] μM; in series [6], 50 µM.

With `CC1COc2c(N3CCN(C)CC3)c(F)cc3c(=O)c(C(=O)O)cn1c23` (centres unmarked) [Ofloxacin], the MIC was 0.625 µM (≈ 0.226 µg/mL) in series [1] (setting [8]), 5 µM (≈ 1.81 µg/mL) in series [4] (setting [9]) and 0.3 µM (≈ 0.108 µg/mL) in series [7] (setting [10]). The “MEC of cytotoxic action” value in series [2] (mouse, 24 h) was >50 [100] μM; in series [3] (human, 24 h) it was >50 [100] μM; in series [5] (human, 24 h) it was >50 [100] μM; in series [6] it was >50 [100] μM.
